Test results as given in US12577247B2 (BUGWORKS RESEARCH, INC., priority 2021, dated 2026).

Assays:
Granzyme B = test: Biomarker (Granzyme-B) FACS analysis in tumour samples from the efficacy study; assay type: in vivo, Balb/c mice; conditions: 30 mg/kg TID, Day 22, vs vehicle and anti-PD1 antibody groups
Procedure: On Day 22, the animals from the efficacy study above were euthanized by overdose of gaseous anaesthesia and tumor samples were collected and their weights were recorded before evaluating for Granzyme-B by FACs analysis.
Approximately 100 mg of tissue samples were homogenized, and the single cell suspensions were fixed and permeabilized using Miltenyi Biotec and BD kit-based reagents before staining with anti-Granzyme-B antibodies. Cells were subjected to FACS analysis while using isotype controls to ensure the specific binding of antibody and unstained cells as a negative control. The result obtained were analyzed using Flow Jo software and represented in FIG. 2.

[1] = system: CT-26 syngeneic colon cancer; test: In vivo efficacy on CT-26 syngeneic colon cancer mice model; parameters: species or system Balb/c mice; conditions: PO, TID; for Decrease in tumor volume: by day 22
Procedure: CT-26 syngeneic model of colon cancer in BALB/c is an established model and has been reported widely in literature for screening of compounds in efficacy studies for immune-oncology therapeutics.
CT-26 Cell line expansion and sub-culturing: CT26 (CT26·WT, ATCC® CRL-2638) is an N-nitroso-N-methylurethane-(NNMU) induced, undifferentiated colon carcinoma cell line derived from Mus musculus, mouse colon tissue. Cells were cultured using standard techniques in RPMI 1640 with 10% FBS and 1× penicillin—streptomycin solution at 37° C. with 5% CO2 in a suitable incubator. Cell density was determined using a hemocytometer upon harvest and the cells were prepared in 100 μL of cold PBS in a microfuge tube and kept on ice until use for inoculations.
Mice: All animal studies were conducted in accordance with an Institutional Animal Care and Use Committee. 6- to 8-week-old Balb/c mice were typically housed in sterilized suspended standard, polysulfone cages, with stainless steel top grills having facilities for holding pelleted food and drinking water in polycarbonate bottles with stainless steel sipper tubes and environment enrichment objects in the vivarium for two weeks prior to tumor cell injection. The same conditions were maintained throughout the subsequent tumor engraftment and treatment evaluation.
Tumor engraftment: All animals were inoculated with 5×10^5/mouse in 100 μL subcutaneously in the lower right flank. Tumor growth was monitored twice a week from Day 4 onwards using a calibrated digital vernier caliper and the tumor volume calculated using the formula, tumor volume (mm3)=length×(width) 2/2. Once tumor volume reaches 100±50 mm^3 on Day 12, all animals were randomized into respective treatment groups as per study plan. See Table 1 for details regarding the setup and dosing of animals. Tumor volume at the time of randomization was 90 mm^3 There was no statistical significance in tumor volume at the time of treatment initiation. Post randomization, animals were treated with the test substance for 21 days. The average tumor volume/size in the treatment group allowed to reach up to 2500 mm^3, beyond this tumor size the animals to be sacrificed humanely as per general guidelines.
Formulation and administration: Formulations were prepared with the components listed in Table 11 every day and mixed well before dosing each time and administered orally. The anti PD-1 antibody was administered via the intraperitoneal route.
Data is represented as Mean±SEM n=4-10, *p<0.05 Vs Vehicle, One-Way ANOVA followed by Dunnett's multiple comparison test. […] Significant decrease in tumor volume was observed on Day 18 and Day 22 compared to vehicle treatment.

[2] = Pharmacokinetic study in mice; assay type: in vivo, CD1 mice

Exposure after subcutaneous (SC) dose relative to oral route [2]: 32 ×
Cmax ([2]; CD1, mouse, plasma, sc, 10 mg/kg, s.c, 10 mg/kg, read-out: Cmax (head Co*/)): 1350 ng/mL
Tmax ([2]; CD1, mouse, plasma, sc, 10 mg/kg, s.c, 10 mg/kg, read-out: Tmax (head Tma)): 30 min
SMILES: Cc1cccc(CCNc2nc3c(C)c(C)nn3c(N)c2C#N)n1 [Example 13, 7-amino-5-((2-(6-methylpyridin-2-yl)ethyl)amino)-2,3-dimethylpyrazolo[1,5-a]pyrimidine-6-carbonitrile]
Tumor Granzyme B expression (Granzyme B): significant increase
Change in tumor volume ([1]; 1 mg/kg, vs vehicle): did not show significant change in tumor volume
Decrease in tumor volume ([1]; 3 mg/kg): 35%
Decrease in tumor volume ([1]; 10 mg/kg): 35%
Decrease in tumor volume ([1]; 30 mg/kg): 48%
